Assay results as given in patent publication US10111853B2, “Compounds, compositions, and methods for the treatment of cancers” (PLACON THERAPEUTICS, INC., priority 2012, dated 2018).

How the values were obtained:
[1] = Drug load (gravimetric, GF-AAS) and encapsulation efficiency of nanoparticles; type: physicochemical; conditions: for Max DL, %: maximum drug load; for Max DL, % / Max EE, %: according to Example 11; for Max EE, %: maximum encapsulation
Protocol: The polymer composition was varied by the ratio of the PLA or PLGA polymer to PLA-PEG or PLGA-PEG copolymer, as well as the PLA molecular weight (25-109 kDa). […] The oil phase was then slowly added to the continuously stirred aqueous phase containing an emulsifier (such as polysorbate 80 a.k.a. Tween® 80) at 10/90% or 20/80% v/v oil/water ratio and a coarse emulsion was prepared using a rotor-stator homogenizer or an ultrasound bath. The course emulsion was then processed through a high-pressure homogenizer (operated at 5,000 or 10,000 psi) for N=2 or 4 passes to form a nanoemulsion. In process (2) the polymers and the drug were dissolved in an organic solvent miscible with water (such as acetone) and added slowly to a continuously stirred aqueous phase with or without a stabilizer (such as polysorbate 80). In both processes (1) and (2) the nanoemulsion formed was quenched (by 5- or 10-fold dilution with cold (0-5° C.) or room temperature deionized water) to remove the major portion of the organic solvent resulting in hardening of the emulsion droplets and formation of a nanoparticle suspension, which was then concentrated and purified with deionized water containing or not surfactants using tangential flow filtration (500 kDa MWCO, mPES membranes).
The actual drug load was determined gravimetrically by transferring 1 mL of the nanoparticle suspension to a 4 mL glass vial and drying under vacuum on a Rotavapor® to determine the amount of total remaining solids. The drug content was then determined by reconstituting the dried sample in an organic solvent (such as N′N′-dimethylformamide) and measuring the total amount of platinum using graphite furnace atomic adsorption spectroscopy (GF-AAS). Encapsulation efficiency was calculated as the ratio between the actual and the theoretical drug load. The yield was determined based on the ratio between the encapsulated and used compound amounts. In-vitro release was studied by incubating the nanoparticle suspension in phosphate buffered saline (PBS) containing a solubilizer such as 1% hydroxypropyl beta cyclodextrin for 24 h at 37° C. mixed continuously in a water shaking bath. Samples were taken at different time points and spun with an ultracentrifuge at 1,000,000×g to separate the nanoparticles from the dissolution medium. The supernatant was then analyzed using GF-AAS or HPLC to determine the active content as a function of time.

[2] = Mouse PK/PD study, tumor platinum levels by ICP-MS; set-up: species or system nude mice; conditions: in vivo, iv, 4 mg/kg
Protocol: To examine the ability of compounds to accumulate in tumors, a murine cancer model was used. Animals were inoculated with 5×10^5 H460 […] lung cancer cells via subcutaneous injection to the flank. Tumors were allowed to reach an approximate volume of ˜500 mm^3. Animals were then randomized into treatment groups of 3 animals per time point and were dosed at 4 mg/kg. The 24 hour time point was used as a benchmark across compounds.
Tumors were excised from animals and dissolved in fuming nitric acid (60% w/w) by adding four parts nitric acid to 1 part tumor w/w and heating overnight at 60 degrees Centigrade. The resulting digest was diluted 1:10 in ICP-MS analysis buffer (1% nitric acid, 2% Triton x-100), and directly introduced into the ICP-MS unit by peristaltic pump. The end dilution factor for the samples as introduced to the ICP-MS was 50×.

SMILES: CC(C)(C)CC(C)(C)NC(=O)[O][Pt]([NH2])([NH2])([Cl])([Cl])[O]C(=O)NC(C)(C)CC(C)(C)C [Compound 29]
- Max DL, % [1]: 5.9%
- Max EE, % [1]: 59%
- encapsulation efficiency (in words) ([1]; statement on Table 4): increased encapsulation efficiency
- maximum drug loading (in words) ([1]; statement on Table 4): increased maximum drug loading
- platinum levels in the tumor, nanoparticle suspension versus free compound [2]: higher platinum levels in the tumors when the corresponding compound was dosed as a nanoparticle suspension than as a free compound

SMILES: CCCCCC(=O)[O][Pt]([NH2])([NH2])([Cl])([Cl])[O]C(=O)CCCCC [reference compound]
- Max DL, % [1]: 0.55%
- Max EE, % [1]: 2.8%
